Key:
Type in all cases: cell-based, human
[1] = system: A3A-mediated RNA editing (SDHB c.136 C>U) in monocyte-enriched PBMCs (MEPs); test: SDHB c.136 C>U RNA editing in monocyte-enriched PBMCs (allele specific RT-qPCR)
Procedure: (§1) Leukoreduction filters (Terumo BCT, Lakewood, Colo.), waste products of platelet donation process, were used to isolate PBMCs by an IRB-approved protocol. PBMCs were isolated using Histopaque-1077 (Sigma). Monocyte-enriched PBMCs (MEPs) were prepared using cold-aggregation method with slight modifications (30,60) Monocytes were isolated from MEPs or PBMCs using EasySep Human CD14 Positive Selection Kit (STEMCELL Technologies). Flow cytometric verification of isolated CD14+ cells were performed using RPCI core facility services. The MEPs were cultured at an average density of 25-35×10^6/ml in 1 or 2 ml per well in 6- or 12-well standard tissue culture plates under standard conditions (37° C./5% CO2) in RPMI-1640 medium with 10% FBS, 100 U/ml penicillin and […] streptomycin (Mediatech). Isolated CD14+ and CD14− cells were cultured at approximately 5×10^6 cell/ml and 7×10^6 cells per ml densities, respectively. THP-1 and TLA-HEK293T cell lines were purchased from ATCC, and Open Biosystems®, respectively, and cultured in recommended conditions. THP-1 cells were cultured in 10^6 cells per 100 μl in 96-well culture plates in ATCC-formulated-1640 medium (30-2001), whereas 293T cells were cultured in DMEM medium supplemented with 10% FBS.
(§2) Cells were cultured under 1% or 6% O2, 5% CO2 and 94% N2 at 37° C. using Xvivo System (Biospherix). Human ‘universal’ type I IFN was obtained from PBL Assay Science and used at 600 U/ml. Atpenin A5 (Cayman chemical #11898), myxothiazol (Sigma-Aldrich, #T5580) and 2-Thenoyltrifluoroacetone (TTFA) (Sigma-Aldrich, #T27006) were used at 1-2 μM and 400 μM final concentrations, respectively. DFO (Sigma-Aldrich #D9533) and DMOG (Sigma-Aldrich #D3695) were used in 0.5 mM and 1.0 mM final concentrations, respectively.
(§3) RNA and plasmid DNA were isolated with commercial kits (TRIzol, Life Technologies and Qiagen, respectively). RNA/DNA was quantified by Nanodrop 2000 (Thermo Fisher). Proteins were quantified using Bio-Rad Dc assay with BSA standards. RNA was reverse transcribed with the Transcriptor First Strand cDNA Synthesis (Roche) kit. SDHB c.136C>U RNA editing was quantified by allele specific RT-qPCR PCR oligonucleotide primers (FIG. 13) were obtained from Integrated DNA Technologies, Inc. ADM, ELL2, HILPDA, NGLY1, MET, TKTL1, VEGFA and B2M gene expression levels was assessed by qPCR using FastStart Taq DNA polymerase and SYBR Green I dye on a LightCycler 480 System (Roche). Quantification cycle values were calculated by the instrument software using the maximum second derivative method and the mean quantification cycle value of duplicate PCR reactions was used for analysis. Delta delta CT method is used to infer gene expression changes.

[2] = system: SDHB c.136C>U RNA editing in CD14+ monocytes; test: SDHB c.136C>U RNA editing in CD14+ monocytes isolated after culture of MEPs; conditions: CD14+ cells, AtA5/normoxia 2 days, n=3 donors; normoxic controls 5.4%±1.7%
Text: We examined whether MTCII also regulates induction of gene expression in primary monocytes under hypoxia or when inactivated, as observed in SDH-mutated paragangliomas. To test the impact of MTCII inhibition on monocyte gene expression, we cultured MEPs (n=3 donors) in normoxia (1 day), hypoxia (1 day) and AtA5/normoxia (2 days), isolated CD14+ monocytes and performed RNA seq analysis. […] HIF1A but not EPAS1 (HIF2A) or HIF3A is expressed robustly (RPKM averages 21.5, 0.17 and 0.01, respectively) in monocytes. […]
as §3, with “RNA was reverse transcribed with the Transcriptor First Strand cDNA Synthesis (Roche) kit.” left out, “Delta delta CT method is used to infer gene expression changes.” left out

[3] = system: hypoxia-related gene expression in CD14+ monocytes; test: Gene expression in CD14+ monocytes (RNA seq, RT-qPCR); conditions: for mRNA expression of VEGFA and HILPDA: isolated CD14+ monocytes, normoxia, 1 day, n=3 donors
HIF-1α [4] = test: HIF-1α immunoblot of CD14+ and CD14− primary cells
Procedure: as §1, §2
(§4) 2× Laemmeli buffer (BIO-RAD) was used to prepare whole cell lysates. The lysate resuspended in the Laemmeli buffer was heated at 95° C. for 15 minutes, and 40 μl of the sample was used to perform gel electrophoresis on pre-cast, 4%-15% gradient polyacrylamide gels (Mini-PROTEAN TGX, Bio-Rad) in Laemmeli buffer system. Mouse monoclonal anti-HIF1α (product number GTX628480, GT10211; 1:1000 dilution) and mouse monoclonal anti-β-actin (product number AM4302, AC-15; 1:15,000 dilution) was used to detect HIF-1α or actin, respectively followed by incubation with HRP-conjugated goat anti-mouse antibodies (Life Technologies) at 1:2000 dilution.

[5] = system: monocyte-enriched PBMCs (MEPs); test: Oxygen consumption in MEPs (MitoXpress-Xtra phosphorescent oxygen probe); conditions: approximately 3 hours, n=3 donors
Procedure: (§5) We first measured oxygen consumption and L-lactate levels to confirm the effect of AtA5 and MXT on mitochondrial respiration in MEPs. We used a phosphorescent oxygen probe (MitoXpress-Xtra) which is quenched by oxygen. Cellular respiration in a closed system depletes oxygen and increases the fluorescence. […] Normoxic induction of RNA editing by MXT is also confirmed in a separate experiment from three additional donors (FIG. 11).
(§6) Oxygen consumption was measured using phosphorescent oxygen probe, MitoXpress-Xtra (Cayman Dual Assay Kit, item no. 601060). Monocytes were enriched to >50% purity by short-term cold aggregation and first cultured in standard conditions for 24 hours without treatment to stimulate metabolic activity. Cells were then centrifuged at 200×g for 7 minutes and resuspended in 1 ml RPMI/1% FBS with or without mitochondrial inhibitors. Cells are covered by mineral oil after addition of MitoXpress-Xtra following manufacturer's protocol. The fluorescence was kinetically measured on a plate reader (Synergy H1) at 20 sec intervals for approximately 3 hours (delay 70 μsec, collection time 30 μsec). Supernatants of the oxygen consumption assay were used to measure L-lactate levels following manufacturer's instructions.

[6] = system: monocyte-enriched PBMCs (MEPs); test: L-Lactate levels in extra-cellular media of MEPs; conditions: supernatants of the oxygen consumption assay
Procedure: as §5, §6

HIF-1α [7] = test: HIF-1α immunoblot of HEK293T cells
Procedure: as §1, §2, §4

HIF-1α [8] = test: HIF-1α immunoblot of THP-1 cells
Procedure: as §1
Cells were cultured under 1% or 6% O2, 5% CO2 and 94% N2 at 37° C. using Xvivo System (Biospherix). […]

[9] = system: hypoxia-regulated genes (HILPDA, VEGFA) in THP-1 cells; test: RT-qPCR of hypoxia-regulated genes in THP-1 cells; conditions: THP-1, normoxia or hypoxia (1%), 24 hours, HILPDA and VEGFA
Procedure: (§7) Leukoreduction filters (Terumo BCT, Lakewood, Colo.), waste products of platelet donation process, were used to isolate PBMCs by an IRB-approved protocol. PBMCs were isolated using Histopaque-1077 (Sigma). Monocyte-enriched PBMCs (MEPs) were prepared using cold-aggregation method with slight modifications (30,60) Monocytes were isolated from MEPs or PBMCs using EasySep Human CD14 Positive Selection Kit (STEMCELL Technologies). Flow cytometric verification of isolated CD14+ cells were performed using RPCI core facility services. […]
as §3, with “RNA was reverse transcribed with the Transcriptor First Strand cDNA Synthesis (Roche) kit.” left out, “Delta delta CT method is used to infer gene expression changes.” left out

[10] = system: hypoxia-regulated genes (ELL2, VEGFA) in 293T cells; test: RT-qPCR of hypoxia-regulated genes in 293T cells; conditions: normoxia and hypoxia (1% O2), 24 hours
Procedure: as §7
as §3, with “RNA was reverse transcribed with the Transcriptor First Strand cDNA Synthesis (Roche) kit.” left out, “Delta delta CT method is used to infer gene expression changes.” left out

[11] = system: hypoxia-response elements (HRE) from PGK1, a HIF-1α target gene; test: HRE-luciferase reporter in HEK293T cells; conditions: 293T
Procedure: It is possible that HIF-1α may have degraded depending on cell type, time of analysis (24 h) or another factor. Therefore, we further examined the effect of AtA5 in HEK293T embryonic kidney cell line and THP-1 monocytic leukemia cell line over a 24 hour period. Several studies in cell lines have reported normoxic stabilization of HIF-1α upon knocking down MTCII (Selak et al., (2005), Cancer. Cell, 7, 77-85, Guzy et al., (2008), Mol. Cell. Biol., 28, 718-731, Cervera et al., (2008), Cancer Res., 68, 4058-4067). […] Since AtA5 appeared to suppress HIF-1α in mild hypoxia, we exposed the cells to both 6% and 1% O2. […] To confirm the suppression of HIF-regulated gene expression, we used a plasmid construct expressing firefly luciferase under the control of three hypoxia-response elements […] from PGK1, a HIF-1α target gene.
HEK293T cells were cotransfected with the 400 ng of HRE-luciferase (Addgene, plasmid #26731), 1 ng of pRL-SV40 plasmid, 600 ng of pcDNA 3.1(+) (control empty vector) per well at ˜50-60% confluency using jetPRIME (Polyplus-transfection) in 12-well culture plates as per the manufacturer's instructions. Transfection efficiency was 60%-80% as assessed by fluorescent microscopy of cells co-transfected with the pLemiR plasmid DNA (Open Biosystems) for expression of a red fluorescent protein. Cells were harvested 2 days after transfection for measurement of their HRE and Renilla luciferase activities using Dual-Luciferase Reporter Assay System (Promega). HRE expression was quantified as a ratio of HRE/Renilla luciferase activities.

[12] = inhibitor jointly with hypoxia (1% O2), compared to hypoxia alone
[13] = hypoxia (1% O2), monocytes isolated from PBMCs then cultured 24 hours, three donors
[14] = normoxia, monocytes isolated from PBMCs then cultured 24 hours
[15] = HEK293T, normoxia, 24 hours, DMOG 1 mM, DFO 0.5 mM, AtA5 1 μM

| SMILES | SDHB c.136 C>U RNA editing [1, 12] | SDHB c.136 C>U RNA editing ([1]; normoxia, 1-3 days) | mRNA expression of VEGFA and HILPDA [3] | HIF-1α stabilization (western blot) (HIF-1α [4]; [13]) | HIF-1α stabilization (western blot) (HIF-1α [4]; [14]) | oxygen consumption [5] | L-Lactate levels [6] | stabilization of HIF-1α (HIF-1α [7]; 293T, 1% O2, 24 hours) | stabilization of HIF-1α (HIF-1α [7]; 293T, 6% O2, 24 hours) | stabilization of HIF-1α (HIF-1α [7]; [15]) | expression of hypoxia-regulated genes [9] | expression of hypoxia-regulated genes [10] | HRE-driven expression (ratio of HRE/Renilla luciferase activities) ([11]; 6% O2, 24 hours) | further results |
| --- | --- | --- | --- | --- | --- | --- | --- | --- | --- | --- | --- | --- | --- | --- |
| COc1[nH]c(O)c(C(=O)[C@@H](C)C[C@H](C)[C@@H](Cl)CCl)c(=O)c1OC [AtA5, 3-((2S,4S,5R)-5,6-dichloro-2,4-dimethylhexanoyl)-2-hydroxy-5,6-dimethoxypyridin-4(1H)-one] | did not further increase RNA editing levels | induced SDHB c.C136U RNA editing | statistically significantly increased | appeared to enhance the stabilization of HIF-1α in hypoxic monocytes in two of three donors | did not robustly stabilize HIF-1α | reduced but did not abolish it | increased relative to the degree of respiratory inhibition | only at 6% O2 | inhibited stabilization of HIF-1α only at 6% O2 | not AtA5 stabilized HIF-1α | suppressed | suppressed | statistically significantly suppressed | SDHB c.136 C>U RNA editing, AtA5 together with IFN1 ([1]; hypoxia with IFN1): no additional effect; SDHB c.136 C>U RNA editing, AtA5 together with IFN1 ([1]; normoxia, IFN1 600 U/ml): additive; SDHB c.136C>U RNA editing (mean±SEM) [2]: 32.1%±14.9%; expression of selected genes (ADM, ELL2, HILPDA, NGLY1, MET, TKTL1 and VEGFA), RT-qPCR ([3]; CD14+ cells, AtA5/normoxia day 2): induction of selected highly-expressed genes; transcriptional upregulation of A3A ([3]; CD14+ cells, AtA5/normoxia, RNA seq): without transcriptional upregulation of A3A; RNA editing in genes other than SDHB ([3]; CD14+ cells, RNA seq analysis): induction of RNA editing in genes other than SDHB; weak HIF-1α expression in normoxia (HIF-1α [7]; HEK293T, normoxia, 24 hours, AtA5 1 μM): suppressed the weak HIF-1α expression in normoxia; stabilization of HIF-1α (HIF-1α [8]; THP-1, normoxia, 24 hours): antagonized weak normoxic stabilization of HIF-1α |
| CC(=O)N(O)CCCCCNC(=O)CCC(=O)N(O)CCCCCNC(=O)CCC(=O)N(O)CCCCCN.CS(=O)(=O)O [DFO] |  |  |  |  |  |  |  |  |  | stabilized HIF-1α in normoxia |  |  |  |  |
| COC(=O)CNC(=O)C(=O)OC [DMOG] |  |  |  |  |  |  |  |  |  | stabilized HIF-1α in normoxia |  |  |  | HIF-1α stabilization (western blot) (HIF-1α [4]; normoxia, CD14+ and CD14− cells isolated after culture of MEPs for 1 or 2 days): caused robust normoxic stabilization of HIF-1α |
| CO/C(=C/C(N)=O)[C@H](C)[C@H](/C=C/c1csc(-c2csc([C@@H](C)/C=C/C=C/C(C)C)n2)n1)OC [MXT, myxothiazol] | no statistically significant effect | induced SDHB mRNA editing in normoxia | statistically significantly increased | appeared to enhance the stabilization of HIF-1α in hypoxic monocytes in two of three donors | did not robustly stabilize HIF-1α | completely suppressed oxygen consumption | increased relative to the degree of respiratory inhibition | inhibited it both at 6% O2 and 1% O2 | inhibited it both at 6% O2 and 1% O2 |  | suppressed | suppressed | inhibited HRE-driven expression | SDHB c.136 C>U RNA editing ([1]; mild hypoxia (6% O2)): increased the editing level; stabilization of HIF-1α (HIF-1α [8]; THP-1, hypoxia 1% O2, 24 hours): inhibited it even at 1% O2; HRE-driven expression (ratio of HRE/Renilla luciferase activities) ([11]; 1% O2, 24 hours): inhibited HRE-driven expression |
| O=C(CC(=O)C(F)(F)F)c1cccs1 [TTFA, 2-Thenoyltrifluoroacetone] |  | also induced RNA editing in normoxia |  |  |  |  |  |  |  |  |  |  |  |  |
